Data reported in US20190389843A1, “PYRROLE mTORC INHIBITORS AND USES THEREOF” (Navitor Pharmaceuticals, Inc., priority 2016, published 2019).
Counter-ions that a name gives are not always drawn.

Experiments:
[1] = test system: pS6K1 in MCF7 (measure of mTORC1 activity); test: AlphaLISA Ultra pS6K1 assay; format: cell-based; conditions: MCF-7 cells, 2 hours compound incubation
Experimental: (§1) Assay Protocol: • 1. […] 12,000˜16,000 cells will be seeded in 36 μL medium per well. • 2. Change the culture medium with fresh medium and incubate for another 2 hours. • 3. Add 12 μL (4λ) compounds into the cell plate by HAMILTON. Final DMSO concentration is 0.5%. Incubate for 2 hours. • 4. Aspirate 38 μL by HAMILTON, 10 μL rest per well. • 5. Add 10 μL 2× lysis buffer using HAMILTON; total volume in wells is 20 μL. Allow cells to shake for 30 min. Cover plate by plastic foil and store plate at −80° C. up to analysis. • 6. […] Add 5 ul acceptor beads into assay plate and incubation for 2 hours • 8. Add 5 ul donor beads and incubation for 2 hours • 9. Count the plate by EnSpire Multimode Plate Reader

[2] = test system: pAKT in MCF7 (measure of mTORC2 activity); test: AlphaLISA Ultra pAKT assay; format: cell-based; conditions: MCF-7 cells, 2 hours compound incubation
Experimental: as §1, with “16,000˜20,000” for “12,000˜16,000”, “(4×)” for “(4λ)”

SMILES	IC50 ([1]; Homo sapiens, MCF7, 2 h)	IC50 ([2]; Homo sapiens, MCF7, 2 h)	IC50 [1]	IC50 [2]
Cc1c(CN2CCN(c3ncccc3Cl)CC2)cc(C(=O)N2CCN(c3ccccn3)CC2)n1C [Example I-2]	–	–	1000 to 3000 nM	> 10000 nM
Cc1c(CN2CCN(c3ncccc3Cl)CC2)cc(C(=O)N2CCN(c3cc(F)c(F)cc3C#N)CC2)n1C [Example I-3]	10 to 1000 nM	> 10000 nM	–	–
Cc1c(CN2CCN(c3ccccc3C#N)CC2)cc(C(=O)N2CCN(c3cc(F)c(F)cc3C#N)CC2)n1C [Example I-4]	10 to 1000 nM	> 1000 nM	–	–
Cc1c(CN2CCN(c3ccccc3C#N)CC2)cc(C(=O)N2CCN(c3oc(C4CC4)nc3C#N)CC2)n1C [Example I-14]	10 to 1000 nM	> 10000 nM	–	–
Cc1c(CN2CCN(c3ccccc3C#N)CC2)cc(C(=O)N2CCN(c3nnccc3C#N)CC2)n1C [Example I-15]	1000 to 3000 nM	> 10000 nM	–	–
Cc1c(CN2CCN(c3ccccc3C#N)CC2)cc(C(=O)N2CCN(c3cccnn3)CC2)n1C [Example I-16]	1000 to 3000 nM	> 10000 nM	–	–
Cn1cc(CN2CCN(c3ccccc3C#N)CC2)cc1C(=O)N1CCN(c2nnccc2C#N)CC1 [Example I-17]	3000 to 10000 nM	> 10000 nM	–	–
Cc1c(CN2CCN(c3ccccc3C#N)CC2)cc(C(=O)N2CCN(c3ccccc3S(C)(=O)=O)CC2)n1C [Example I-21]	1000 to 3000 nM	> 10000 nM	–	–
Cc1nc(C#N)c(N2CCN(C(=O)c3cc(CN4CCN(c5ccccc5C#N)CC4)c(C)n3C)CC2)o1 [Example I-22]	1000 to 3000 nM	> 10000 nM	–	–
Cc1c(CN2CCN(c3ccccc3C#N)CC2)cc(C(=O)N2CCN(c3ccccc3C#N)CC2)n1C [Example I-23]	10 to 1000 nM	> 10000 nM	–	–
Cn1c(C(=O)N2CCN(c3ccccc3)CC2)cc(CN2CCN(c3ccccc3C#N)CC2)c1C#N [Example I-39]	10 to 1000 nM	> 10000 nM	–	–
Cc1c(CN2CCN(c3ccccc3C#N)CC2)cc(C(=O)N2CCN(c3cccc(C#N)n3)CC2)n1C [Example I-43]	10 to 1000 nM	> 3000 nM	–	–
Cc1c(CN2CCN(c3ncccc3Cl)CC2)cc(C(=O)N2CCN(c3ccccn3)CC2)n1C [Example I-44]	–	–	10 to 1000 nM	> 3000 nM
Cc1c(CN2CCN(c3ccccc3C#N)CC2)cc(C(=O)N2CCN(c3ccc4ncn(C)c4c3)CC2)n1C [Example I-48]	3000 to 10000 nM	> 10000 nM	–	–

More lines, now with the values ahead:

IC50 ([1]; Homo sapiens, MCF7, 2 h)	IC50 ([2]; Homo sapiens, MCF7, 2 h)	IC50 [1]	IC50 [2]	SMILES
10 to 1000 nM	> 1000 nM	–	–	Cc1c(CN2CCN(c3ccccc3Cl)CC2)cc(C(=O)N2CCN(c3cc(F)c(F)cc3C#N)CC2)n1C [Example I-1]
3000 to 10000 nM	> 10000 nM	–	–	Cc1c(CN2CCN(c3ccccc3CCCN)CC2)cc(C(=O)N2CCN(c3ccccc3)C[C@@H]2C)n1C [Example I-24, (S)-(4-((4-(2-(3-aminopropyl)phenyl)piperazin-1-yl)methyl)-1,5-dimethyl-1H-pyrrol-2-yl)(2-methyl-4-phenylpiperazin-1-yl)methanone ditrifluoroacetate salt]
1000 to 3000 nM	> 10000 nM	–	–	Cc1c(CN2CCN(c3ccccc3Cl)CC2)cc(C(=O)N2CCN(c3cccc(CCCN)c3)C[C@H]2C)n1C [Example I-27, (R)-(4-(3-(3-aminopropyl)phenyl)-2-methylpiperazin-1-yl)(4-((4-(2-chlorophenyl)piperazin-1-yl)methyl)-1,5-dimethyl-1H-pyrrol-2-yl)methanone trifluoroacetate salt]
3000 to 10000 nM	> 10000 nM	–	–	Cc1c(CN2CCN(c3ccccc3Cl)CC2)cc(C(=O)N2CCN(c3ccccc3)C[C@@H]2C)n1CCCN [Example I-29, (S)-(1-(3-aminopropyl)-4-((4-(2-chlorophenyl)piperazin-1-yl)methyl)-5-methyl-1H-pyrrol-2-yl)(2-methyl-4-phenylpiperazin-1-yl)methanone dihydrochloride salt]
3000 to 10000 nM	> 10000 nM	–	–	Cc1c(CN2CCN(c3ccccc3Cl)CC2)cc(C(=O)N2CCN(c3cccc(CCCN)c3)C[C@@H]2C)n1C [Example I-30, (S)-(4-(3-(3-aminopropyl)phenyl)-2-methylpiperazin-1-yl)(4-((4-(2-chlorophenyl)piperazin-1-yl)methyl)-1,5-dimethyl-1H-pyrrol-2-yl)methanone trifluoroacetate salt]
1000 to 3000 nM	> 10000 nM	–	–	Cc1c(CN2CCN(c3ccccc3Cl)CC2)cc(C(=O)N2CCN(c3cccc4cc[nH]c34)C[C@@H]2C)n1C [Example I-31, (S)-(4-(1H-indol-7-yl)-2-methylpiperazin-1-yl)(4-((4-(2-chlorophenyl)piperazin-1-yl)methyl)-1,5-dimethyl-1H-pyrrol-2-yl)methanone]
1000 to 3000 nM	> 10000 nM	–	–	Cc1c(CN2CCN(c3ccccc3Cl)CC2)cc(C(=O)N2CCN(c3ccc4[nH]ccc4c3)C[C@@H]2C)n1C [Example I-33, (S)-(4-(1H-indol-5-yl)-2-methylpiperazin-1-yl)(4-((4-(2-chlorophenyl)piperazin-1-yl)methyl)-1,5-dimethyl-1H-pyrrol-2-yl)methanone trifluoroacetate salt]
1000 to 3000 nM	> 10000 nM	–	–	Cc1c(CN2CCN(c3ccccc3Cl)CC2)cc(C(=O)N2CCN(c3ccc4cc[nH]c4c3)C[C@@H]2C)n1C [Example I-34, (S)-(4-(1H-indol-6-yl)-2-methylpiperazin-1-yl)(4-((4-(2-chlorophenyl)piperazin-1-yl)methyl)-1,5-dimethyl-1H-pyrrol-2-yl)methanone trifluoroacetate salt]
1000 to 3000 nM	> 10000 nM	–	–	Cc1c(CN2CCN(c3ccccc3Cl)CC2)cc(C(=O)N2CCn3ncc(-c4ccccc4)c3C2)n1C [Example I-35, (4-((4-(2-Chlorophenyl)piperazin-1-yl)methyl)-1,5-dimethyl-1H-pyrrol-2-yl)(3-phenyl-6,7-dihydropyrazolo[1,5-a]pyrazin-5(4H)-yl)methanone]
10 to 1000 nM	> 10000 nM	–	–	Cn1c(C(=O)N2CCN(c3ccccc3)CC2)cc(CN2CCN(c3ccccc3Cl)CC2)c1C#N [Example I-36]
10 to 1000 nM	> 3000 nM	–	–	Cc1nc(N2CCN(C(=O)c3cc(CN4CCN(c5ccccc5Cl)CC4)c(C#N)n3C)CC2)ccc1F [Example I-37]
10 to 1000 nM	> 3000 nM	–	–	Cc1cccc(N2CCN(C(=O)c3cc(CN4CCN(c5ccccc5Cl)CC4)c(C#N)n3C)CC2)n1 [Example I-38]
3000 to 10000 nM	> 10000 nM	–	–	Cc1c(CN2CCN(c3ccccc3Cl)CC2)cc(C(=O)N2CCCN(c3cccc(C#N)c3)CC2)n1C [Example I-40, 3-(4-(4-((4-(2-chlorophenyl)piperazin-1-yl)methyl)-1,5-dimethyl-1H-pyrrole-2-carbonyl)-1,4-diazepan-1-yl)benzonitrile]
1000 to 3000 nM	> 10000 nM	–	–	Cc1c(CN2CCCN(c3ccccc3Cl)CC2)cc(C(=O)N2CCN(c3cccc(C#N)c3)C[C@@H]2C)n1C [Example I-41, (S)-3-(4-(4-((4-(2-chlorophenyl)-1,4-diazepan-1-yl)methyl)-1,5-dimethyl-1H-pyrrole-2-carbonyl)-3-methylpiperazin-1-yl)benzonitrile]
10 to 1000 nM	> 3000 nM	–	–	Cc1c(CN2CCN(c3ccccc3C#N)CC2)cc(C(=O)N2CCN(c3ccccn3)C[C@@H]2C)n1C [Example I-42]
1000 to 3000 nM	> 10000 nM	–	–	Cc1c(CN2CCN(c3ccccc3C#N)CC2)cc(C(=O)N2CCCN(c3cccc(C#N)c3)CC2)n1C [Example I-45, 2-(4-((5-(4-(3-cyanophenyl)-1,4-diazepane-1-carbonyl)-1,2-dimethyl-1H-pyrrol-3-yl)methyl)piperazin-1-yl)benzonitrile]
1000 to 3000 nM	> 10000 nM	–	–	Cc1c(C(C)N2CCN(c3ccccc3Cl)CC2)cc(C(=O)N2CCN(c3ccc(F)cc3)C[C@@H]2C)n1C (stereo partly drawn) [Example I-46, (4-(1-(4-(2-Chlorophenyl)piperazin-1-yl)ethyl)-1,5-dimethyl-1H-pyrrol-2-yl)((S)-4-(4-fluorophenyl)-2-methylpiperazin-1-yl)methanone]
1000 to 3000 nM	> 10000 nM	–	–	Cc1c(CN2CCCN(c3ccccc3Cl)CC2)cc(C(=O)N2CCN(c3ccc(F)cc3)C[C@@H]2C)n1C [Example I-47, (S)-(4-((4-(2-chlorophenyl)-1,4-diazepan-1-yl)methyl)-1,5-dimethyl-1H-pyrrol-2-yl)(4-(4-fluorophenyl)-2-methylpiperazin-1-yl)methanone]
1000 to 3000 nM	> 10000 nM	–	–	Cc1c(CN2CCN(c3ccccc3Cl)CC2)cc(C(=O)N2CCCN(c3ccc(F)cc3)CC2)n1C [Example I-49, (4-((4-(2-Chlorophenyl)piperazin-1-yl)methyl)-1,5-dimethyl-1H-pyrrol-2-yl)(4-(4-fluorophenyl)-1,4-diazepan-1-yl)methanone]
1000 to 3000 nM	> 10000 nM	–	–	Cc1c(CN2CCN(c3ccccc3C#N)CC2)cc(C(=O)N2CCCN(c3ccc(F)cc3)CC2)n1C [Example I-50, 2-(4-((5-(4-(4-Fluorophenyl)-1,4-diazepane-1-carbonyl)-1,2-dimethyl-1H-pyrrol-3-yl)methyl)piperazin-1-yl)benzonitrile]
